In ChEMBL document CHEMBL3046586, “Lethal and sublethal effects of buprofezin and imidacloprid on Bemisia tabaci (Hemiptera: Aleyrodidae)” (2011):
≈ marks a conversion by molar mass, not a printed value. Calls of active or inactive are those of the source. The calls are words filed in the database; no cut-off is given here.

Tests used:
Bemisia tabaci [1] = experiment: Insecticidal activity against male Bemisia tabaci (sweet potato whitefly) in compound treated cucumber leaves assessed as mortality at 2000 ppm at 25 +/- 1 degC, 70 +/- 5% RH after 48 hr (reference value: 6.3%); assay type: functional
Bemisia tabaci [2] = experiment: Insecticidal activity against Bemisia tabaci (sweet potato whitefly) at first instar larvae stage in compound treated cucumber leaves assessed as mortality measured as dry larvae and detached from leaf at 25 +/- 1 degC, 70 +/- 5% RH after 7 days; assay type: functional; settings: 168 h
Bemisia tabaci [3] = experiment: Insecticidal activity against adult female Bemisia tabaci (sweet potato whitefly) in compound treated cucumber leaves assessed as laid eggs at LC25 concentration at 25 +/- 1 degC, 70 +/- 5% RH after 48 hr; assay type: functional, organism-based
Bemisia tabaci [4] = experiment: Insecticidal activity against Bemisia tabaci (sweet potato whitefly) at second instar larvae stage in compound treated cucumber leaves assessed as mortality measured as dry larvae and detached from leaf at 25 +/- 1 degC, 70 +/- 5% RH after 7 days; assay type: functional; settings: 168 h
Bemisia tabaci [5] = experiment: Insecticidal activity against Bemisia tabaci (sweet potato whitefly) at egg stage in compound treated cucumber leaves assessed as egg hatch at 8000 ppm at 25 +/- 1 degC, 70 +/- 5% RH after 10 days (reference value: 91%); assay type: functional
Bemisia tabaci [6] = experiment: Insecticidal activity against adult female Bemisia tabaci (sweet potato whitefly) in compound treated cucumber leaves assessed as mortality at 10000 ppm at 25 +/- 1 degC, 70 +/- 5% RH after 48 hr (reference value: 9.3%); assay type: functional
Bemisia tabaci [7] = experiment: Insecticidal activity against Bemisia tabaci (sweet potato whitefly) at egg stage in compound treated cucumber leaves assessed as egg hatch at 2000 ppm at 25 +/- 1 degC, 70 +/- 5% RH after 10 days (reference value: 91%); assay type: functional
Bemisia tabaci [8] = experiment: Insecticidal activity against Bemisia tabaci (sweet potato whitefly) at pupae stage in compound treated cucumber leaves assessed as mortality measured as dry larvae and detached from leaf at 25 +/- 1 degC, 70 +/- 5% RH after 7 days; assay type: functional; settings: 168 h
Bemisia tabaci [9] = experiment: Insecticidal activity against Bemisia tabaci (sweet potato whitefly) at egg stage in compound treated cucumber leaves assessed as egg hatch at 10000 ppm at 25 +/- 1 degC, 70 +/- 5% RH after 10 days (reference value: 91%); assay type: functional
Bemisia tabaci [10] = experiment: Insecticidal activity against adult female Bemisia tabaci (sweet potato whitefly) in compound treated cucumber leaves assessed as offspring sex ratio at LC25 concentration at 25 +/- 1 degC, 70 +/- 5% RH after 48 hr (Rvb Female/Female + male)= 0.60 no unit); assay type: functional
Bemisia tabaci [11] = experiment: Insecticidal activity against adult female Bemisia tabaci (sweet potato whitefly) in compound treated cucumber leaves assessed as egg hatch at LC25 concentration at 25 +/- 1 degC, 70 +/- 5% RH after 48 hr (reference value: […]); assay type: functional
Bemisia tabaci [12] = experiment: Insecticidal activity against adult female Bemisia tabaci (sweet potato whitefly) in compound treated cucumber leaves assessed as longevity at LC25 concentration at 25 +/- 1 degC, 70 +/- 5% RH after 48 hr (reference value: 8.31 days); assay type: functional
Bemisia tabaci [13] = experiment: Insecticidal activity against male Bemisia tabaci (sweet potato whitefly) in compound treated cucumber leaves assessed as mortality at 8000 ppm at 25 +/- 1 degC, 70 +/- 5% RH after 48 hr (reference value: 6.3%); assay type: functional
Bemisia tabaci [14] = experiment: Insecticidal activity against adult female Bemisia tabaci (sweet potato whitefly) in compound treated cucumber leaves assessed as mortality at 2000 ppm at 25 +/- 1 degC, 70 +/- 5% RH after 48 hr (reference value: 9.3%); assay type: functional
Bemisia tabaci [15] = experiment: Insecticidal activity against Bemisia tabaci (sweet potato whitefly) at third instar larvae stage in compound treated cucumber leaves assessed as mortality measured as dry larvae and detached from leaf at 25 +/- 1 degC, 70 +/- 5% RH after 7 days; assay type: functional; settings: 168 h
Bemisia tabaci [16] = experiment: Insecticidal activity against male Bemisia tabaci (sweet potato whitefly) in compound treated cucumber leaves assessed as mortality at 10000 ppm at 25 +/- 1 degC, 70 +/- 5% RH after 48 hr (reference value: 6.3%); assay type: functional
Bemisia tabaci [17] = experiment: Insecticidal activity against adult female Bemisia tabaci (sweet potato whitefly) in compound treated cucumber leaves assessed as mortality at 8000 ppm at 25 +/- 1 degC, 70 +/- 5% RH after 48 hr (reference value: 9.3%); assay type: functional
Bemisia tabaci [18] = experiment: Insecticidal activity against Bemisia tabaci (sweet potato whitefly) at egg stage in compound treated cucumber leaves assessed as mortality measured as failure to hatch at 25 +/- 1 degC, 70 +/- 5% RH after 10 days; assay type: functional; settings: 240 h
Bemisia tabaci [19] = experiment: Insecticidal activity against adult female Bemisia tabaci (sweet potato whitefly) in compound treated cucumber leaves assessed as mortality after 48 hr; assay type: functional
Bemisia tabaci [20] = experiment: Insecticidal activity against male Bemisia tabaci (sweet potato whitefly) in compound treated cucumber leaves assessed as mortality after 48 hr; assay type: functional

Compound | LC50 (Bemisia tabaci [2]) | Activity (Bemisia tabaci [3]) | LC50 (Bemisia tabaci [4]) | LC50 (Bemisia tabaci [8]) | Ratio (Bemisia tabaci [10]) | Activity (Bemisia tabaci [11]) | Time (Bemisia tabaci [12]) | LC50 (Bemisia tabaci [15]) | further results
CC(C)N1C(=O)N(c2ccccc2)CS/C1=N\C(C)(C)C [BUPROFEZIN] | 0.99 µg/mL (≈ 3.24 µM) | Active | 10.9 µg/mL (≈ 35.8 µM) | 979 µg/mL (≈ 3210 µM) | 0.5 | 66% | 4.85 days | 44.7 µg/mL (≈ 146 µM) | mortality at 2000 ppm (Bemisia tabaci [1]): 11.3%; Activity (Bemisia tabaci [5]): 68%; mortality at 10000 ppm (Bemisia tabaci [6]): 9.3%; Activity (Bemisia tabaci [7]): 88%; Activity (Bemisia tabaci [9]): 72%; mortality at 8000 ppm (Bemisia tabaci [13]): 10%; mortality at 2000 ppm (Bemisia tabaci [14]): 8%; mortality at 10000 ppm (Bemisia tabaci [16]): 19%; mortality at 8000 ppm (Bemisia tabaci [17]): 8%
O=[N+]([O-])/N=C1\NCCN1Cc1ccc(Cl)nc1 [IMIDACLOPRID] | 19.3 µg/mL (≈ 75.5 µM) | inactive | 85.4 µg/mL (≈ 334 µM) | 2850 µg/mL (≈ 11200 µM) | 0.56 | 87.42% | 11.7 days | 335 µg/mL (≈ 1310 µM) | LC50 (Bemisia tabaci [18]): 151 µg/mL (≈ 591 µM); LC25 (Bemisia tabaci [19]): 4.64 ppm; LC50 (Bemisia tabaci [19]; Bemisia tabaci, 48 h): 71.6 µg/mL (≈ 280 µM); LC50 (Bemisia tabaci [20]): 11.8 µg/mL (≈ 46.2 µM)
